In PubChem BioAssay (NCI):
Values joined by “and” are separate entries in the source; they are usually repeats but may differ in a detail not shown here. Identical values can stand only once.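 Method: 48-hour compound exposure of cells in 96-well plates, five concentrations, linear interpolation of endpoints. GI50: concentration for 50% inhibition of growth. TGI denotes the concentration required for complete inhibition of growth.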

Experiments:
Test in all cases: NCI tumour cell line growth inhibition, 48 h
SK-OV-3 ovarian = test system: SK-OV-3 ovarian
CCRF-CEM leukemia = test system: CCRF-CEM leukemia
OVCAR-8 ovarian = test system: OVCAR-8 ovarian
NCI-H23 lung = test system: NCI-H23 lung
UACC-257 melanoma = test system: UACC-257 melanoma
MALME-3M melanoma = test system: MALME-3M melanoma
HCT-15 colon = test system: HCT-15 colon
HCT-116 colon = test system: HCT-116 colon
RPMI-8226 leukemia = test system: RPMI-8226 leukemia
DU-145 prostate = test system: DU-145 prostate

| Compound | GI50 (SK-OV-3 ovarian) [µM] | TGI (SK-OV-3 ovarian) | GI50 (CCRF-CEM leukemia) [µM] | TGI (CCRF-CEM leukemia) | GI50 (OVCAR-8 ovarian) [µM] | TGI (OVCAR-8 ovarian) | GI50 (NCI-H23 lung) [µM] | TGI (NCI-H23 lung) | GI50 (UACC-257 melanoma) [µM] | TGI (UACC-257 melanoma) | GI50 (MALME-3M melanoma) [µM] | TGI (MALME-3M melanoma) | GI50 (HCT-15 colon) [µM] | TGI (HCT-15 colon) | GI50 (HCT-116 colon) [µM] | TGI (HCT-116 colon) | GI50 (RPMI-8226 leukemia) [µM] | TGI (RPMI-8226 leukemia) | GI50 (DU-145 prostate) [µM] | TGI (DU-145 prostate) |
| --- | --- | --- | --- | --- | --- | --- | --- | --- | --- | --- | --- | --- | --- | --- | --- | --- | --- | --- | --- | --- |
| C=C1CC[C@@]2(C#N)[C@H]3[C@H](CC[C@@H]2C)[C@@H](C)C[C@@H](CC(C)(C)C#N)[C@H]13 | 6.6 | 77.9 µM | 1.62 | 33.5 µM | 0.785 | 33.7 µM | 1.06 | 32.6 µM | 8.3 | 56.4 µM | 5.23 | 40.8 µM | 0.604 | 23.1 µM | 0.229 | 11.2 µM | 0.589 | 26.3 µM | 0.337 | 16.2 µM |
| CCCCCNC(=O)[C@@H]1CCCN2C(=O)CC[C@H](NC(=O)[C@H](Cc3ccc(OP(=O)(O)O)cc3)NC(C)=O)C(=O)N12 | > 25 | > 25 µM | > 25 | > 25 µM | > 25 | > 25 µM | > 25 | > 25 µM | > 25 | > 25 µM | > 25 | > 25 µM | > 25 | > 25 µM | > 25 | > 25 µM | > 25 | > 25 µM | > 25 | > 25 µM |
| c1ccc2[nH]c(SSc3nc4ncncc4[nH]3)nc2c1 | 0.37 | 34.2 µM | 1.37 | > 100 µM | 3.32 | > 100 µM | 2.9 | > 100 µM | 4.97 | > 75.2 µM | 2.01 | > 66.1 µM | 3.25 | > 100 µM | 0.913 | > 100 µM | 0.709 | > 100 µM | 0.674 | > 100 µM |
| COc1cc(Cl)cc(-c2nn(C(=O)NCCN3CCN(C)CC3)cc2-c2ccncc2)c1 | 5.44 | 28.8 µM | 43 | > 100 µM | 2.94 | > 100 µM | 20.1 | 82 µM | 20.5 | > 100 µM | 9.28 | 43.4 µM | 17.2 | 69.9 µM | 14.8 | 31.3 µM | 21.9 | > 100 µM | 12.3 | 66.5 µM |
| O=[N+]([O-])c1ccc(-c2nc(N(CCO)CCO)c3ccccc3n2)o1 | 0.156 | 0.401 µM | 1.14 | 64.1 µM | 0.262 | 2.88 µM | 0.1 | 0.314 µM | 0.189 | 0.453 µM | 0.155 | 0.373 µM | 0.176 | 1.71 µM | 0.232 | 1.24 µM | 0.567 | > 21.3 µM | 0.0352 | 0.303 µM |
| Cn1ccc2c(NCCN)c3c(c(NCCN)c21)C(=O)c1ccccc1C3=O | 20.3 | 42.4 µM | 0.371 |  | 2.84 | 13.4 µM | 1.68 | 4.07 µM | 10.2 | > 27.7 µM | 3.67 | 15.2 µM | 2.8 | > 32 µM | 0.398 | 4.41 µM | 0.455 |  | 0.453 | 6.05 µM |
| CC1(C)COCN1COC1CCCCC1 |  | > 100 µM |  | > 100 µM |  | > 100 µM |  | > 100 µM |  | > 100 µM |  | > 100 µM |  | > 100 µM |  | > 100 µM |  | > 100 µM |  | > 100 µM |
| CC(=O)C1CC2(c3ccc(C)cc3)C(c3ccc(C)cc3)=C(c3ccc(C)cc3)C1(c1ccc(C)cc1)S2=O (stereo unspecified) | > 100 | > 100 µM | > 100 | > 100 µM | 88.2 | > 100 µM | > 100 | > 100 µM | > 100 | > 100 µM | > 100 | > 100 µM | > 100 | > 100 µM | > 100 | > 100 µM | 31.1 | > 100 µM | > 100 | > 100 µM |
| CC([C@H]1CCC2C3CCC4C[C@@H](NC=O)CC[C@]4(C)C3CC[C@@]21C)N(C)C (stereo partly specified) | 3.96 | 13.5 µM | 2.31 | 10.9 µM | 6.48 | > 46.4 µM | 4.73 | 19 µM | 2.57 | 6.24 µM | 2.18 | 4.83 µM | 1.56 | 4.66 µM | 1.54 | 3.22 µM | 1.91 | 6.6 µM | 4.84 | 17.5 µM |
| O=C1/C(=C/c2ccc(O)c([N+](=O)[O-])c2)CCC/C1=C\c1ccc(O)c([N+](=O)[O-])c1 | 22.2 | 50 µM and > 100 µM | 14.9 | 50 µM and 56.2 µM | 16 | 50 µM and 34.7 µM | 8.14 | 32.6 µM and 25.2 µM | 15.5 | 44.3 µM and 37.7 µM | 12.3 | 26.3 µM and 26.2 µM | 9.77 | 36.5 µM and 37.2 µM | 26.8 | 18.7 µM and > 100 µM | 10 | 50 µM and 32.6 µM | 2.99 | 20.3 µM and 15.3 µM |
| COc1ccc2c(c1)nc(N)c1c3cc(OC)c(OC)cc3cn21 | < 0.01 | 0.321 µM | 0.0101 | 11 µM | 0.123 | 13.6 µM |  | 5.7 µM | 11.4 | 27.2 µM | 9.39 | 37.7 µM | < 0.01 | 13.3 µM | < 0.01 | 13.7 µM | 0.0968 | 12.8 µM |  | 8.63 µM |
| CC(=O)Nc1nc(SCc2ccccc2)c2ncn(C(C)=O)c2n1 | 55.9 | > 100 µM | > 100 | > 100 µM | 76.5 | > 100 µM | > 100 | > 100 µM | > 100 | > 100 µM | > 100 | > 100 µM | 93 | > 100 µM | > 100 | > 100 µM | 55.6 | > 100 µM | > 100 | > 100 µM |
| COc1ccc(C2=NN(C(=O)COc3ccc(Cl)cc3)C(O)(c3cc(F)c(Cl)cc3Cl)C2)cc1OC (stereo unspecified) | 16.1 | 30.6 µM | 0.218 | 1.8 µM | 5.7 | 14.1 µM | 4.74 | 17.8 µM | 2.74 | 8.01 µM | 1.72 | 3.76 µM | 1.39 | 3 µM | 1.23 | 2.58 µM | 1.79 | 5.78 µM | 1.25 | 3.73 µM |
| C=C1C[C@@H]2C/C=C/C(=O)C/C(C)=C\C=C\C(=O)O[C@H](C=O)C/C(C)=C/[C@H](C1)O2 | 5.36 | > 100 µM | 0.315 | 0.956 µM | 1.49 | > 100 µM | 5.16 | 23.1 µM | 14.1 | 34.7 µM | 13.6 | 38.4 µM | 0.485 | 16.2 µM | 0.37 | 3.86 µM | 0.295 | 3.29 µM | 0.455 | 2.32 µM |
| N#CC1=C(N)NC(=S)NC12Nc1ccccc1O2 (stereo unspecified) | 37.9 | > 100 µM | 61.7 | > 100 µM | 46.2 | > 100 µM | 20.4 | 69.7 µM | 35.3 | > 100 µM | > 100 | > 100 µM | 21.6 | > 100 µM | 22.5 | 85.2 µM | 21.9 | 62.7 µM | 55.1 | > 100 µM |
| Cc1cc(C)c(O)c(CNCCCCCCNCc2cc(C)cc(C)c2O)c1 | 1.83 | 3.67 µM | 2.19 | 5.72 µM | 2.2 | 5.01 µM | 1.7 | 3.28 µM | 2.07 | 4.13 µM | 1.6 | 3.17 µM | 1.4 | 3.05 µM | 1.73 | 3.43 µM | 1.94 | 4.96 µM | 1.7 | 3.3 µM |
| COc1c(C)c2c(c(O)c1C/C=C(\C)CCC(=O)OCCN1CCOCC1)C(=O)OC2 | 0.462 | > 100 µM | 0.187 | > 100 µM | 0.464 | > 100 µM | 0.245 | > 100 µM | 0.573 | > 100 µM | 2.5 | > 100 µM | 0.0928 | > 100 µM | 0.131 | > 100 µM | 0.891 | > 100 µM | 0.415 | > 100 µM |
| O=C1CCCCCCCC/C=C/CCC(c2ccco2)O1 (stereo unspecified) | > 100 | > 100 µM | 27 | > 100 µM | 88.1 | > 100 µM | > 100 | > 100 µM | > 100 | > 100 µM | 6.7 | 62.6 µM | > 100 | > 100 µM | 31.2 | > 100 µM | 13.6 | 37.6 µM | 57.2 | > 100 µM |
| Cc1cccc(C)c1NC(=O)/C(Cl)=C(/Cl)C(=O)O |  | 45.5 µM |  | 14.1 µM |  | 40.9 µM |  | 38.6 µM |  | 29.8 µM |  | 29.7 µM |  | 34.8 µM |  | 36.4 µM |  | 37.1 µM |  | 64.8 µM |
